Patent US8846715B2, “(2S,3R)-N-(2((3-pyridinyl)methyl)-1-azabicyclo[2.2.2]oct-3-yl)benzofuran-2-carboxamide novel salt forms, and methods of use thereof” (Targacept, Inc., priority 2007, dated 2014)
“Also recorded” adds a separate entry of the source.

Assays:
[1] = Water solubility (salt screening); assay type: physicochemical
Protocol: Thermodynamic Aqueous Solubility by HPLC
The suspension was equilibrated at 25° C. for 24 h, and then the pH was measured. The suspension was then filtered through a glass fiber C filter into a 96 well plate. The filtrate was then diluted by a factor of 101. Quantitation was by HPLC with reference to a standard solution of approximately 0.1 mg/mL in DMSO. Different volumes of the standard, diluted and undiluted sample solutions were injected. The solubility was calculated using the peak areas determined by integration of the peak found at the same retention time as the principal peak in the standard injection. If there was sufficient solid in the filter plate, the XRPD was collected.

[2] = Hygroscopicity (salt screening); assay type: physicochemical
Protocol: Sorption isotherms were determined on either or both of two instruments. Some were experiments were run using a VTI Corporation SGA-100 moisture sorption analyzer, controlled by VTI FlowSystem 4 software. The sample temperature was maintained at 25° C. with the aid of a Polyscience constant temperature bath. The humidity was controlled by mixing streams of dry and wet nitrogen. The weight change as a function of % RH was monitored using a Cahn Digital Recording Balance D-200 with an accuracy of +/−0.0001 g.
Typically a 10-20 mg sample was placed on the tared balance pan under ambient conditions. The sample was dried at 50° C. for 1 h. The standard adsorption isotherm was performed at 25° C. at 5% RH intervals over a 5-95% RH range, and the desorption isotherm was similarly done at 25° C. at 5% RH intervals over a 95-5% RH range. Sample equilibration criteria included 0.0100 wt % in 5 min or a maximum equilibration time of 180 min for each % RH data point.
Some sorption isotherms were obtained using a Hiden IGASorp moisture sorption analyser, controlled by CFRSorp software. The sample temperature was maintained at 25° C. by a Huber re-circulating water bath. The humidity was controlled by mixing streams of dry and wet nitrogen, with a total flow rate of 250 mL/min. The relative humidity was measured by a calibrated Vaisala RH probe (dynamic range of 0-95% RH), located near the sample. The weight change, (mass relaxation) of the sample as a function of % RH was constantly monitored by the microbalance (accuracy ±0.001 mg). Typically 10-20 mg of sample was placed in a tared mesh stainless steel basket under ambient conditions. The sample was loaded and unloaded at 40% RH and 25° C. (typical ambient conditions). A moisture sorption isotherm was performed as outlined below (2 scans giving 1 complete cycle). The standard isotherm was performed at 25° C. at 10% RH intervals over a 0-90% RH range.
The software uses a least squares minimization procedure together with a model of the mass relaxation, to predict an asymptotic value. The measured mass relaxation value must be within 5% of that predicted by the software, before the next % RH value is selected. The minimum equilibration time was set to 1 h and the maximum to 4 h. Typically, samples were recovered after completion of the isotherm and re-analyzed by XRPD.

[3] = molecular target: T1, human 5HT3 receptor (Homo sapiens, UniProt P46098); test: Radioligand binding at human 5HT3 receptor; conditions: read-out: Inhibition of radioligand binding at human 5HT3 receptor
T1 sequence (P46098 24-478): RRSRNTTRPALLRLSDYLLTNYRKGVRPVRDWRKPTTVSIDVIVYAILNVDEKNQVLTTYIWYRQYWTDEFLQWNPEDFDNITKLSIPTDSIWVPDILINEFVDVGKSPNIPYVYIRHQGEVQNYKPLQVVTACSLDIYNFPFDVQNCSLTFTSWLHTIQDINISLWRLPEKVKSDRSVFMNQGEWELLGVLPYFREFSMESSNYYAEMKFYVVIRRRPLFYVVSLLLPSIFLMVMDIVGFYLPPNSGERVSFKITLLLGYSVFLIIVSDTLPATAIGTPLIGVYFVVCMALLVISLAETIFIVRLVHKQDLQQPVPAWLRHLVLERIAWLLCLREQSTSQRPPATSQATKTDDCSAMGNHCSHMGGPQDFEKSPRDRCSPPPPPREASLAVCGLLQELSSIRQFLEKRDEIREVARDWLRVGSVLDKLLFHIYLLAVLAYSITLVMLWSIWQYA

[4] = system: rats; test: Object recognition (OR) paradigm; assay type: in vivo
[5] = molecular target: T2, mouse 5HT3 receptor (Mus musculus, UniProt P23979); test: Radioligand binding at mouse 5HT3 receptor; conditions: read-out: Inhibition of radioligand binding at mouse 5HT3 receptor
T2 sequence (P23979 24-489): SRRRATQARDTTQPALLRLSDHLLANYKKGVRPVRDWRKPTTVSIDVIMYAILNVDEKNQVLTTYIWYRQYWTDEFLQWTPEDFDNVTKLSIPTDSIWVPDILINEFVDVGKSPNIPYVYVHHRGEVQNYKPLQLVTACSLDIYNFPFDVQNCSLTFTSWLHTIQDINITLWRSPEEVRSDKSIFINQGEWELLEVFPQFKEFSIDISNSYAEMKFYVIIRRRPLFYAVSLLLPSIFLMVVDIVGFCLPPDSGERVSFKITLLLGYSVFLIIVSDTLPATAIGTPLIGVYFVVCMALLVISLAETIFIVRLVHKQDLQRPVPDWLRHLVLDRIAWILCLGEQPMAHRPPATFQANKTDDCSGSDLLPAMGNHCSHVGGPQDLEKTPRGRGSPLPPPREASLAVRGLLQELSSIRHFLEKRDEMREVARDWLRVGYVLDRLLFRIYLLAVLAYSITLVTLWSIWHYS

[6] = molecular target: rat α7 NNRs stably expressed in GH4C1 (mammalian) cells (Rattus norvegicus, UniProt Q05941); test: Patch clamp electrophysiology, rat α7 NNR in GH4C1 cells
Protocol: Electrophysiological measurement of α7 NNR response were taken in two expression systems: rat α7 NNR in mammalian GH4C1 cells and human α7 NNR in Xenopus oocytes.
Electrophysiological measurements of agonist activity were achieved using the Dynaflow rapid perfusion system and patch clamp using this GH4C1 cell expression system.
Whole-cell currents recorded with an Axopatch 700A amplifier were filtered at 1 kHz and sampled at 5 kHz by a PCI card (National Instrument). […] Cells were recorded at room temperature in the following extracellular medium: 130 mM NaCl, 5 mM KCl, 2 mM CaCl2, 2 mM MgCl2, 10 mM HEPES, adjusted to pH 7.4 with aqueous NaOH. […] Under these conditions, the macro-current activity obtained with NNR whole-cell recording lasts up to 60 min when elicited with a 1000 μM acetylcholine (ACh) concentration.
Cell handling procedures were adopted from Cellectricon application notes for Dynaflow. Briefly, after removal from the incubator, cells were washed thoroughly three times with recording medium and placed on the stage of a inverted Zeiss microscope. On average 5 min was necessary before the whole-cell recording configuration was established. To avoid modification of the cell conditions, a single cell was recorded per single load of cells into Dynaflow silicon chip. […] Cells were held at −60 mV throughout the experiment. […]

[7] = molecular target: human α7 NNRs (Homo sapiens, UniProt P36544); test: cell-based; conditions: read-out: E. (Emax) of ACh response
Protocol: Mature (>9 cm) female Xenopus laevis African toads (Nasco, Ft. Atkinson, Wis.) were used as a source of oocytes. Prior to surgery, the toads were anesthetized by placing the animal in a 1.5 g/L solution of 3-aminobenzoic acid ethyl ester for 30 min. Oocytes were removed from an incision made in the abdomen.
Subsequently, stage 5 oocytes were isolated and injected with 50 mL (5-20 ng) each of the human α7 cRNA. Recordings were made 2 to 7 days after injection. Fresh acetylcholine (ACh) stock solutions were made daily in Ringer's solution.
Experiments were conducted using OpusXpress 6000A (Axon Instruments, Union City Calif.). […]
Each oocyte received an initial control application of ACh, then an experimental drug application, and then a follow-up control application of ACh (300 μM). Responses to experimental drug applications were calculated relative to the preceding ACh control responses in order to normalize the data, compensating for the varying levels of channel expression among the oocytes. […] Means and standard errors (SEM) were calculated from the normalized responses of at least four oocytes for each experimental concentration. For concentration-response relations, data derived from net charge analyses were plotted using Kaleidagraph 3.0.2 (Abelbeck Software; Reading, Pa.), and curves were generated from the Hill equation.

[8] = molecular target: T3, M1 muscarinic receptors (Homo sapiens, UniProt P11229); test: Competitive binding inhibition, M1 muscarinic
T3 sequence (P11229 1-460): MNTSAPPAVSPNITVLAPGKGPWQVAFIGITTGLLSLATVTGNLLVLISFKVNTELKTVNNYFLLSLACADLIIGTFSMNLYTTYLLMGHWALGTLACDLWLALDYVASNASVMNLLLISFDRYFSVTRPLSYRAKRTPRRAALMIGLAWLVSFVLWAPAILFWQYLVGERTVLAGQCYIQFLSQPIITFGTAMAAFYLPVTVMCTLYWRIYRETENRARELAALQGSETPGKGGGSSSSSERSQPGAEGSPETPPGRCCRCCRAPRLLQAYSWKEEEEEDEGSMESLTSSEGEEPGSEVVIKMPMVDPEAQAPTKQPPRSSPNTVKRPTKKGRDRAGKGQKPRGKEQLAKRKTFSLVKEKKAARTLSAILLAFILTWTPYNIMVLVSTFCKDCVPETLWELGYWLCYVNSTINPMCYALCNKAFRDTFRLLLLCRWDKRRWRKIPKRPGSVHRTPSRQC

[9] = molecular target: T4, M2 muscarinic receptors (Homo sapiens, UniProt P08172); test: Competitive binding inhibition, M2 muscarinic
T4 sequence (P08172 1-466): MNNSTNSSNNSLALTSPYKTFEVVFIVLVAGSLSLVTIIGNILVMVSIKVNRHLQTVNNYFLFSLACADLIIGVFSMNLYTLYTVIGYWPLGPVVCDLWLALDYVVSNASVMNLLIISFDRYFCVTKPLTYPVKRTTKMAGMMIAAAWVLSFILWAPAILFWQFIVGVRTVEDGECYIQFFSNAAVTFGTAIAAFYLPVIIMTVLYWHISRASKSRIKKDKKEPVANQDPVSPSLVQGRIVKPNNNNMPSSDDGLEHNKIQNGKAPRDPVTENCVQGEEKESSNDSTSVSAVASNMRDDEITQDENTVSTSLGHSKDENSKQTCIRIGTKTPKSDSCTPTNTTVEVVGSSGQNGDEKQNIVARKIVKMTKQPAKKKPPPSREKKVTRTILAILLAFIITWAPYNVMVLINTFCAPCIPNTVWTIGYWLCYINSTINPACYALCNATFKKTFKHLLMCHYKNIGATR

[10] = molecular target: human α4β2 sub-type (Homo sapiens, UniProt P17787+P43681); test: Electrophysiology, human α4β2 in Xenopus oocytes
[11] = Pre-pulse inhibition (PPI), apomorphine-induced deficits; assay type: in vivo; conditions: subcutaneous pretreatment (FIG. 9)
[12] = molecular target: α4β2 NNRs (Homo sapiens, UniProt P17787+P43681); test: Binding to α4β2 NNRs
[13] = system: rats; test: MK-801 induced deficits in the OR task; assay type: in vivo; conditions: 0.3 and 1 mg/kg i.p. (FIGS. 5A, 5B)
[14] = system: rats; conditions: 0.3 and 1.0 mg/kg s.c., apomorphine 1.0 mg/kg (FIG. 8)
Protocol: The reversal of apomorphine-induced locomotor activity (APO LOCO) assay was performed in accord with the description of Roux et al., Curr.

[15] = Radial arm maze (RAM) paradigm; assay type: in vivo; conditions: p.o. 30 minutes prior to daily session, 0.3 mg/kg, second week (FIG. 7)
Description: FIG. 7 illustrates an assessment of cognitive effects in a radial arm maze (RAM) paradigm.

[16] = Solid state stability by XRPD, 40° C./75% RH; assay type: physicochemical; conditions: 1 week at 40° C./75% RH
Protocol: X-Ray Powder Diffraction patterns were collected either or both of two instruments. Some were collected on a Siemens D5000 diffractometer using CuKα radiation (40 kV, 40 mA), 0-0 goniometer, V20 divergence and receiving slits, a graphite secondary monochromator and a scintillation counter. The instrument was performance checked using a certified Corundum standard (NIST 1976). Samples run under ambient conditions were prepared as flat plate specimens using powder as received. Approximately 35 mg of the sample was gently packed into a cavity cut into polished, zero-background (510) silicon wafer. The sample was rotated in its own plane during analysis, scanning from 2° to 42° in steps of 0.05° at 4 seconds per step, using CuKα1 (λ=1.5406 Å).
The tosylate salt, specifically the crystalline mono salt, was confirmed and the diffraction pattern is shown in FIG. 14 using CuKα radiation (40 kV, 40 mA), 0-0 goniometer, V20 divergence and receiving slits, a graphite secondary monochromator, and a scintillation counter. […] Likely, the change is due to a more hydrated form.

Sequence of rat α7 NNRs stably expressed in GH4C1 (mammalian) cells (Q05941 23-502): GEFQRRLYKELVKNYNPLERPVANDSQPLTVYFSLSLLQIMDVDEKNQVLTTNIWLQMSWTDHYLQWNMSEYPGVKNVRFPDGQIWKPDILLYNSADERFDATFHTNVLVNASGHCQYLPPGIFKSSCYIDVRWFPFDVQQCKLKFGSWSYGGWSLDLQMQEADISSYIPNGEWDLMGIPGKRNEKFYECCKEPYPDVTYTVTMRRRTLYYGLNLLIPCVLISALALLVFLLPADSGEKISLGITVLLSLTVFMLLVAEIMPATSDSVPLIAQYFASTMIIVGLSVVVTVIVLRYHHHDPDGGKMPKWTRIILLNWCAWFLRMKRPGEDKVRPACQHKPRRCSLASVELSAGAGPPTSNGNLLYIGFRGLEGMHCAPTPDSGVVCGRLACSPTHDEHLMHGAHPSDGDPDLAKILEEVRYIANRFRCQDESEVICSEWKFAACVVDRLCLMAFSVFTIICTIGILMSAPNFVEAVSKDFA
Sequence of human α4β2 sub-type (P43681 29-627 limits assumed): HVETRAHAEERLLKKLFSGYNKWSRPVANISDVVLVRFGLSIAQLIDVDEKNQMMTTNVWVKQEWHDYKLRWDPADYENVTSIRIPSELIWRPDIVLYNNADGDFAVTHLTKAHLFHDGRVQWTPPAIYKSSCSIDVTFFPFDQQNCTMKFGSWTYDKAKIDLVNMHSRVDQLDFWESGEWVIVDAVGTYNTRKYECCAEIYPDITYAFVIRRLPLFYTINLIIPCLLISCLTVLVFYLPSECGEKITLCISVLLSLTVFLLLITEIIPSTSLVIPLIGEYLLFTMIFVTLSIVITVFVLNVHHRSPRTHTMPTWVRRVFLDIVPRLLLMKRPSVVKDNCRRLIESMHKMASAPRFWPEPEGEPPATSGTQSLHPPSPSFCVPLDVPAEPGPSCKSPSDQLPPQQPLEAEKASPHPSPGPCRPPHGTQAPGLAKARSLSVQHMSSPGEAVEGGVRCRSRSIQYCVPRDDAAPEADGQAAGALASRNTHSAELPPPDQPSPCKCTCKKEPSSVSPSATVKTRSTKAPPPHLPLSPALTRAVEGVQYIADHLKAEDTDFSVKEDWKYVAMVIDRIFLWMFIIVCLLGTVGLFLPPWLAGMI
Sequence of human α4β2 sub-type (P17787 26-502): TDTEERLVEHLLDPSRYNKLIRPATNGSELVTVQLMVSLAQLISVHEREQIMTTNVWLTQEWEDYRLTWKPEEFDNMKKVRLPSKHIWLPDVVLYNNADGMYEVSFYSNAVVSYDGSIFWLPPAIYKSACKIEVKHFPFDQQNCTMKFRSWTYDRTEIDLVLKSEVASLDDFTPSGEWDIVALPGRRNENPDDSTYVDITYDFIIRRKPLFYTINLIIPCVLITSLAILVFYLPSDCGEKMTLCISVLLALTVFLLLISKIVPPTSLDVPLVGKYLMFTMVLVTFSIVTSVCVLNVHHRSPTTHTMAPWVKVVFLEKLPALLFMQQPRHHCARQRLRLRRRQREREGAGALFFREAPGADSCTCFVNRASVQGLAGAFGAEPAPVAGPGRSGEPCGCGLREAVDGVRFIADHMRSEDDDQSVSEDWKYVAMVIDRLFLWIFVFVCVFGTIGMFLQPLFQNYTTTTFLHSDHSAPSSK
Sequence of α4β2 NNRs (P43681 29-627 limits assumed): as the sequence (P43681 29-627 limits assumed) above
Sequence of α4β2 NNRs (P17787 26-502): as the sequence (P17787 26-502) above
Sequence of human α7 NNRs (P36544 23-502): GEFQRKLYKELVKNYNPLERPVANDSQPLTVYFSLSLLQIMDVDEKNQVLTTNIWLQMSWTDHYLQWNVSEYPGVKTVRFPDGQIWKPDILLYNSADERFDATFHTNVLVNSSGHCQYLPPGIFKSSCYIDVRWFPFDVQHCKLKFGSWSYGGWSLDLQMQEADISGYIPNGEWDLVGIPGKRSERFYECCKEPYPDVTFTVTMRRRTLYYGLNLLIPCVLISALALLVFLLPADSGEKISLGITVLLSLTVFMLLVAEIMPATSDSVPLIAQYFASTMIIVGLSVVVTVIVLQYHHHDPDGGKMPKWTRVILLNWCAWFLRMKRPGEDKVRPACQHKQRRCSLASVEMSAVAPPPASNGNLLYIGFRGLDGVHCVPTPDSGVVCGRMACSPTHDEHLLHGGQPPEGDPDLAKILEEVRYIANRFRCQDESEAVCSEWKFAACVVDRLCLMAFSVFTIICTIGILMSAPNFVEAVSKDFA

Question: What does the source list for Cl.O=C(N[C@@H]1C2CCN(CC2)[C@H]1Cc1cccnc1)c1cc2ccccc2o1 [hydrochloric acid salt]?
Answer: Water solubility [1]: good water solubility; Hygroscopicity [2]: low hygroscopicity

Question: For O=C(N[C@@H]1C2CCN(CC2)[C@H]1Cc1cccnc1)c1cc2ccccc2o1.O=C(O)/C=C\C(=O)O [maleic acid salt], which Water solubility [1] is on record?
Answer: good water solubility

Question: And the Hygroscopicity [2]?
Answer: low hygroscopicity

Question: With O=C(N[C@@H]1C2CCN(CC2)[C@H]1Cc1cccnc1)c1cc2ccccc2o1 (single isomer, unassigned) [Compound A] as the compound, how does the Water solubility [1] read?
Answer: very limited water solubility

Question: And the inhibition at 10 µM [3]?
Answer: 25%

Question: What about the “Duration of cognitive effects in OR” value ([4]; 0.3 mg/kg orally (FIG. 6)) of the same compound?
Answer: at least 18 hours

Question: And the “Time investigating novel versus familiar object” value ([4]; 0.3 mg/kg p.o. sub-acute, 30 min, 2 h, 6 h and 18 h after final administration)?
Answer: significantly (P<0.05) more time investigating object B (novel) than object A (familiar)

Question: And the “Cognitive effects in object recognition, i.p.” value ([4]; rats, 0.3 and 1 mg/kg i.p. (FIG. 3))?
Answer: potent activity

Question: And the “Cognitive effects in object recognition, p.o.” value ([4]; rats, p.o., 0.3-10 mg/kg (FIG. 4))?
Answer: potent activity; also recorded: activity across a wide dose range

Question: What about the inhibition at 10 µM [5] of the same compound?
Answer: 59%

Question: And the Emax ([6]; GH4-C1, read-out: Emax relative to acetylcholine (ACh))?
Answer: 93%

Question: What about the “Functional activity at the α7 subtype” value ([6]; rat α7 in GH4C1 cells, FIGS. 1A.2 and 1B) of the same compound?
Answer: potent agonism throughout the concentration range of 1-50 nM

Question: And the Emax [7]?
Answer: 100%

Question: And the “Interaction with M1 muscarinic receptors” value [8]?
Answer: minimal to no interaction

Question: What about the “Interaction with M2 muscarinic receptors” value [9] of the same compound?
Answer: minimal to no interaction

Question: What about the “Activation of human α4β2” value [10] of the same compound?
Answer: no detectable activation

Question: What about the “Decreases in subsequent control responses to ACh at α4β2” value [10] of the same compound?
Answer: no significant decreases

Question: What about the “Effect on apomorphine-induced prepulse inhibition deficits” value [11] of the same compound?
Answer: displays effectiveness

Question: What about the Ki [12] of the same compound?
Answer: > 2000 nM

Question: What about the “Effect on MK-801 induced deficits in the OR task” value [13] of the same compound?
Answer: tends to reverse MK-801 induced deficits

Question: What about the “Effect on apomorphine-induced locomotor hyperactivity” value [14] of the same compound?
Answer: displays effectiveness in reversing apomorphine-induced locomotor activity

Question: And the “Performance in radial arm maze (working memory)” value [15]?
Answer: significantly increased the number of correct choices prior to error

Question: Which Water solubility [1] does the source give for Cc1ccc(S(=O)(=O)O)cc1.O=C(N[C@@H]1C2CCN(CC2)[C@H]1Cc1cccnc1)c1cc2ccccc2o1 [p-toluenesulfonic acid salt] here?
Answer: good water solubility

Question: What about the “XRPD form after storage” value [16] of the same compound?
Answer: reveals a change but the sample is still Form 1

Question: What about the Hygroscopicity [2] of the same compound?
Answer: low hygroscopicity

Question: Which results are given for O=C(N[C@@H]1C2CCN(CC2)[C@H]1Cc1cccnc1)c1cc2ccccc2o1.O=P(O)(O)O [phosphoric acid salt]?
Answer: Water solubility [1]: good water solubility; Hygroscopicity [2]: low hygroscopicity
